Experimental data taken from paper PMC11823630, “In vitro potentiation of tetracyclines in Pseudomonas aeruginosa by RW01, a new cyclic peptide” (Antimicrobial Agents and Chemotherapy, 2024).
Converted amounts (≈) assume the structure as drawn. Where two headings read alike, the source gives them in different places.

Columns and labels:
[1] = system: PAO1 mutant MIN1_RW01_3, pmrB(V215L); experiment: MIC, E-test on MHA; assay type: cell-based; conditions: Pseudomonas aeruginosa, PAO1, read-out: MIC, E-test
[2] = system: PAO1 mutant MIN16_3, nfxB(nt79∆14), pilB(N349K); experiment: MIC, E-test on MHA; assay type: cell-based; conditions: Pseudomonas aeruginosa, PAO1, read-out: MIC, E-test
[3] = system: PAO1 mutant MIN32_1, mexR(R63H), pilB(N349K), PA0646(V316G); experiment: MIC, E-test on MHA; assay type: cell-based; conditions: Pseudomonas aeruginosa, PAO1, read-out: MIC, E-test
[4] = system: PAO1 mutant MIN16_1, nalD(T43P); experiment: MIC, E-test on MHA; assay type: cell-based; conditions: Pseudomonas aeruginosa, PAO1, read-out: MIC, E-test
[5] = system: PAO1 mutant MIN8_3, pilZ(nt18InsT); experiment: MIC, E-test on MHA; assay type: cell-based; conditions: Pseudomonas aeruginosa, PAO1, read-out: MIC, E-test
[6] = system: PAO1 mutant MIN2_RW01_1, pmrB(V215L); experiment: MIC, E-test on MHA; assay type: cell-based; conditions: Pseudomonas aeruginosa, PAO1, read-out: MIC, E-test
[7] = system: PAO1 mutant MIN4_RW01_3, pmrB(M292T); experiment: MIC, E-test on MHA; assay type: cell-based; conditions: Pseudomonas aeruginosa, PAO1, read-out: MIC, E-test
[8] = system: PAO1 mutant MIN8_2, pilZ(nt18InsT); experiment: MIC, E-test on MHA; assay type: cell-based; conditions: Pseudomonas aeruginosa, PAO1, read-out: MIC, E-test
[9] = system: PAO1 mutant MIN4_RW01_2, pmrB(F124S); experiment: MIC, E-test on MHA; assay type: cell-based; conditions: Pseudomonas aeruginosa, PAO1, read-out: MIC, E-test
[10] = system: PAO1 mutant MIN16_4, nalC(T50P), pilM(Q62X); experiment: MIC, E-test on MHA; assay type: cell-based; conditions: Pseudomonas aeruginosa, PAO1, read-out: MIC, E-test
[11] = system: PAO1 mutant MIN4_RW01_4, pmrB(Y98N); experiment: MIC, E-test on MHA; assay type: cell-based; conditions: Pseudomonas aeruginosa, PAO1, read-out: MIC, E-test
[12] = system: PAO1 mutant MIN2_RW01_2, pmrB(M292T); experiment: MIC, E-test on MHA; assay type: cell-based; conditions: Pseudomonas aeruginosa, PAO1, read-out: MIC, E-test
[13] = system: P. aeruginosa 125B; experiment: MIC, CLSI broth microdilution in BD Phoenix AST Broth; assay type: cell-based, Pseudomonas aeruginosa; conditions: strain 125B
[14] = system: P. aeruginosa 125A; experiment: as above; assay type: cell-based, Pseudomonas aeruginosa; conditions: strain 125A
[15] = system: P. aeruginosa 41A; experiment: as above; assay type: cell-based, Pseudomonas aeruginosa; conditions: strain 41A
[16] = system: P. aeruginosa PAOUW∆oprF; experiment: as above; assay type: cell-based, Pseudomonas aeruginosa
[17] = system: P. aeruginosa PAOΔmexZ; experiment: as above; assay type: cell-based, Pseudomonas aeruginosa; conditions: strain PAOΔmexZ; for MIC: agent alone, 37°C, 18–22 h, three biological replicates
[18] = system: P. aeruginosa PAOUW; experiment: as above; assay type: cell-based, Pseudomonas aeruginosa; conditions: strain PAOUW; for MIC: agent alone, 37°C, 18–22 h, three biological replicates
[19] = system: P. aeruginosa PAOΔmexR; experiment: as above; assay type: cell-based, Pseudomonas aeruginosa; conditions: strain PAOΔmexR
[20] = system: P. aeruginosa PAO1; experiment: as above; assay type: cell-based, Pseudomonas aeruginosa; conditions: for MIC: Pseudomonas aeruginosa
[21] = system: P. aeruginosa PAOΔoprM; experiment: as above; assay type: cell-based, Pseudomonas aeruginosa
[22] = system: P. aeruginosa 41B; experiment: as above; assay type: cell-based, Pseudomonas aeruginosa; conditions: strain 41B
[23] = system: PAO1 mutant MIN8_4, pilZ(nt18InsT); experiment: MIC, E-test on MHA; assay type: cell-based; conditions: Pseudomonas aeruginosa, PAO1, read-out: MIC, E-test
[24] = Pseudomonas aeruginosa, agent alone, 37°C, 18–22 h, three biological replicates
[25] = MIC of the antibiotic with fixed 100 mg/L RW01
[26] = antibiotic MIC alone vs with RW01 100 mg/L
[27] = antibiotic with RW01 at 100 mg/L
[28] = strain PAOUWΔoprF (printed PAOΔoprF), antibiotic with RW01 at 100 mg/L
[29] = strain PAO1, antibiotic with RW01 at 100 mg/L
[30] = strain PAOΔoprM, antibiotic with RW01 at 100 mg/L

`CN(C)c1cc(NC(=O)CNC(C)(C)C)c(O)c2c1C[C@H]1C[C@H]3[C@H](N(C)C)C(O)=C(C(N)=O)C(=O)[C@@]3(O)C(O)=C1C2=O` [Tigecycline, tigecycline] showed an MIC [1] of 16 µg/mL (≈ 27.3 µM), an MIC [2] of 48 µg/mL (≈ 82 µM) and an MIC [3] of 24 µg/mL (≈ 41 µM). The MIC [4] was 16 µg/mL (≈ 27.3 µM), the MIC [5] was 16 µg/mL (≈ 27.3 µM) and the MIC [6] was 24 µg/mL (≈ 41 µM). For the same compound, the MIC [7] was 32 µg/mL (≈ 54.6 µM), the MIC [8] was 32 µg/mL (≈ 54.6 µM) and the MIC [9] was 16 µg/mL (≈ 27.3 µM). The MIC [10] was 16 µg/mL (≈ 27.3 µM), the MIC [11] was 32 µg/mL (≈ 54.6 µM) and the MIC [12] was 16 µg/mL (≈ 27.3 µM). For the same compound, the MIC [13, 24] was 8 µg/mL, the “Antibiotic MIC + RW01 100 mg/L” value [13, 25] was 1 µg/mL and the “Potentiation (fold)” value [13, 26] was 8 fold. For the same compound, the FICI [13, 27] was 0.320, the FICI-determined effect [13, 27] was “Synergy (synergistic effect if FICI is ≤0.5)” and the MIC [14, 24] was 8 µg/mL. The “Antibiotic MIC + RW01 100 mg/L” value [14, 25] was 1 µg/mL, the “Potentiation (fold)” value [14, 26] was 8 fold and the FICI [14, 27] was 0.320. For the same compound, the FICI-determined effect [14, 27] was “Synergy (synergistic effect if FICI is ≤0.5)”, the MIC [15, 24] was 8 µg/mL and the “Antibiotic MIC + RW01 100 mg/L” value [15, 25] was 2 µg/mL. The “Potentiation (fold)” value [15, 26] was 4 fold, the FICI [15, 27] was 0.348 and the FICI-determined effect [15, 27] was “Synergy (synergistic effect if FICI is ≤0.5)”. The “Potentiation (fold)” value ([16]; strain PAOUWΔoprF (printed PAOΔoprF), antibiotic MIC alone vs with RW01 100 mg/L) was 8 fold, the FICI [16, 28] was 0.223 and the FICI-determined effect [16, 28] was “Synergy (synergistic effect if FICI is ≤0.5)”. The MIC ([16]; strain PAOUWΔoprF, agent alone, 37°C, 18–22 h, three biological replicates) was 16 µg/mL, the MIC ([17]; Pseudomonas aeruginosa) was 16 µg/mL and the MIC [17] was 8 µg/mL. The “Potentiation (fold)” value [17, 26] was 8 fold, the FICI [17, 27] was 0.223 and the FICI-determined effect [17, 27] was “Synergy (synergistic effect if FICI is ≤0.5)”. For the same compound, the MIC ([18]; Pseudomonas aeruginosa, read-out: MIC) was 8 µg/mL, the “Antibiotic MIC + RW01 100 mg/L” value [18, 25] was 1 µg/mL and the MIC [18] was 4 µg/mL. The “Potentiation (fold)” value [18, 26] was 4 fold, the FICI [18, 27] was 0.348 and the FICI-determined effect [18, 27] was “Synergy (synergistic effect if FICI is ≤0.5)”. For the same compound, the “Antibiotic MIC + RW01 100 mg/L” value [19, 25] was 1 µg/mL, the “Potentiation (fold)” value [19, 26] was 8 fold and the FICI [19, 27] was 0.223. For the same compound, the FICI-determined effect [19, 27] was “Synergy (synergistic effect if FICI is ≤0.5)”, the MIC ([20]; PAO1) was 8 µg/mL and the MIC ([20]; PAO1, strain PAO1, agent alone, 37°C, 18–22 h, three biological replicates, read-out: MIC) was 2 µg/mL. The “Antibiotic MIC + RW01 100 mg/L” value ([20]; strain PAO1, MIC of the antibiotic with fixed 100 mg/L RW01) was 2 µg/mL, the “Potentiation (fold)” value ([20]; strain PAO1, antibiotic MIC alone vs with RW01 100 mg/L) was 4 fold and the FICI [20, 29] was 0.445. The FICI-determined effect [20, 29] was “Synergy (synergistic effect if FICI is ≤0.5)”, the MIC ([21]; Pseudomonas aeruginosa) was 1 µg/mL and the “Antibiotic MIC + RW01 100 mg/L” value ([21]; strain PAOΔoprM, MIC of the antibiotic with fixed 100 mg/L RW01) was 1 µg/mL. For the same compound, the “Potentiation (fold)” value ([21]; strain PAOΔoprM, antibiotic MIC alone vs with RW01 100 mg/L) was 1 fold, the FICI [21, 30] was 1.098 and the FICI-determined effect [21, 30] was “Indifference (indifferent effect if 1.0 < FICI ≤ 2.0)”. The MIC [22, 24] was 8 µg/mL, the “Antibiotic MIC + RW01 100 mg/L” value [22, 25] was 2 µg/mL and the “Potentiation (fold)” value [22, 26] was 4 fold. The FICI [22, 27] was 0.348, the FICI-determined effect [22, 27] was “Synergy (synergistic effect if FICI is ≤0.5)” and the MIC [23] was 32 µg/mL (≈ 54.6 µM).
